Molecules are shown by their SMILES.

The results in this text go back to patent US11759445B2, “Use of Rivastigmine in preparation of anti-radiation medicament” (priority 2020, dated 2023).

One assay deals with C57BL/6 mice. Briefly: Survival of mice at a lethal dose (10 Gy whole body irradiation) after intraperitoneal medicament. Type of assay: in vivo, mouse. The conditions noted are these: for influence on the survival time of mice after receiving irradiation: i.p. half an hour before 10 Gy whole body irradiation. The text has this: 1.2.2 Experiment for Verifying the Survival Rate of Mice at a Lethal Dose
Mice were subjected to 10 Gy whole body irradiation with an X-ray biological irradiator in Department of Medicine having a dose rate of 1.5 Gy/min; and before irradiation, mice were intraperitoneally injected the medicament screened out via an in vitro experiment, and then continuously raised in a temporary storage room of the animal center after irradiation.
4 to 6 week-age C57BL/6 mice were selected as experimental subjects, and divided into control groups and experimental groups, and subjected to 10 Gy whole body irradiation with a dose rate of 1.5 Gy/min; mice in the experimental subjects were respectively intraperitoneally injected the medicaments screened half an hour before irradiation, and the survival time was recorded after irradiation. Among the medicaments, water-soluble Don-H, Pra-C and DL-Pan are dissolved by normal saline, and others were dissolved by 5 g/100 mL DMSO+edible oil. The medicament was prepared into a stock solution having a corresponding concentration according to the volume that 20 g mice were intraperitoneally injected 100 μL medicament.

For another assay, the system named is crypt stem cells Lgr5+. Briefly: In vitro medicament screening experiment on crypt stem cells Lgr5+ of mice (GFP fluorescence after 10 Gy irradiation). Type of assay: cell-based. The note with it: Mus musculus, light or radiation study, 240 h, 10 μM medicament, GFP fluorescence 10 d after irradiation, read-out: increment of the Lgr5+ stem cells compared with IR groups. The text has this:
1.2.1 In Vitro Medicament Screening Experiment on Crypt Stem Cells Lgr5^+ of Mice
1) Lgr5-GFP mice were sacrificed by cervical dislocation, and enterocoelia was opened and the whole small intestine was taken out, and then the small intestine was put to a pre-cooled HBSS buffer solution to remove mesentery and adipose tissues as much as possible, and dissected longitudinally to wash out contents of the small intestine.
2) Villi and contents inside the intestinal cavity were scraped by a glass slide, and then the remaining intestinal cavity was washed for once to twice.
3) The whole small intestine was quickly cut into 5 mm intestinal segments.
4) The intestinal segments were transferred to a 50 mL centrifugal tube, and 25 mL HBSS and 250 μL penicillin/streptomycin solution were added for incubation for 10 min at room temperature, and then the centrifugal tube was slightly inverted to mix evenly for 2-3 times.
5) Supernatant was absorbed, and 10 mL new HBSS was added to wash the intestinal segments for 2-3 times till the final intestinal segments were cleaned thoroughly, then a 70 μm filter sieve was used for filtering to retain the remaining intestinal segments.
6) The intestinal segments were transferred to a 50 mL centrifugal tube, and added to a 10 mL pre-blended digestive solution for incubation for 5 min at room temperature.
7) The centrifugal tube was shaken violently or swirled for several seconds, and then a 70 μm filter sieve was used for filtering.
8) The intestinal segments were transferred to a new 50 mL centrifugal tube, and a 10 mL digestive solution was added for incubation on ice for 30 min, and then the centrifugal tube was shaken violently or swirled for several seconds, and then a 70 μm filter sieve was used for filtering. A black 96-well plate was put on an incubator for preheating during the incubation on ice.
9) The intestinal segments were transferred to a new 50 mL centrifugal tube, and 10 mL HBSS was added, then the centrifugal tube was shaken violently or swirled for several seconds, and a 70 μm filter sieve was used for filtering to retain filtrate.
10) […] for 10 min at 4° C.
11) Supernatant was removed, and crypt cells were precipitated and resuspended by a crypt cell culture solution, and then cell counting was performed microscopically.
12) Cells were diluted by a ratio of the crypt cell culture solution to matrigel=1:1 (v/v), so as to ensure that per 10 μL of mixed liquor contained about 100 crypt cells.
13) The preheated black 96-well plate was taken out, and 10 μL mixed liquor was added to the center of each well, and then the well plate was put to an incubator for 10 min at 37° C.
14) After the matrigel was solidified, each medicament in Bioactive Compound Library (790 types) was diluted by a medium to a final concentration of 10 μM, and then 100 μL was added to per well.
15) The 96-well plate was put on a multi-mode microplate reader to read fluorescence intensity under the conditions of excitation wavelength at 485 nm and emission wavelength at 528 nm, and to record the values on the same day.
16) Crypt cells were irradiated with 10 Gy radiation, and the fluorescence intensity for consecutive 10 d after irradiation was recorded; afterwards, the background fluorescence intensity of a blank control was removed, and a fluorescence intensity curve was drawn; and the test results were shown in FIGS. 1-4.
Crypt stem cells Lgr5^+ separated from Lgr5-GFP mice in vivo carried GFP fluorescence, and the change of the mean fluorescence intensity (MFI) represented the proliferation of crypt stem cells Lgr5*. […]

For `CC(C)(CO)C(O)C(=O)NCCCO` (racemic) [DL-Panthenol], the “influence on the survival time of mice after receiving irradiation” value (“influence on the survival time of mice” below) in the assay with C57BL/6 mice (dose not stated) was “no statistical significance”. Further, the fold induction at 10 µM in the assay on crypt stem cells Lgr5+ worked out at 3.5.

Turning to `C[C@H](CCC(=O)O)[C@H]1CC[C@H]2[C@@H]3C(=O)C[C@@H]4CC(=O)CC[C@]4(C)[C@H]3CC(=O)[C@]12C` [Dehydrocholic acid], the “survival time of the mice” value in the assay with C57BL/6 mice (10 mg/kg i.p. half an hour before 10 Gy whole body irradiation), in the assay with C57BL/6 mice (20 mg/kg i.p. half an hour before 10 Gy whole body irradiation), in the assay on C57BL/6 mice (60 mg/kg i.p. half an hour before 10 Gy whole body irradiation), in the assay with C57BL/6 mice (80 mg/kg i.p. half an hour before 10 Gy whole body irradiation) and in the assay with C57BL/6 mice (100 mg/kg i.p. half an hour before 10 Gy whole body irradiation) was “did not improve the survival time” each time. Moreover, the “extension of the death time of the mice” value in the assay with C57BL/6 mice (40 mg/kg i.p. half an hour before 10 Gy whole body irradiation, P<0.01) worked out at 2 days. In addition, the fold induction at 10 µM with crypt stem cells Lgr5+ amounted to 3.4.

For `CCCOc1ccn2c(C(C)=O)cc(-c3ccccc3S(C)(=O)=O)c2c1` [GSK2801], the “influence on the survival time of mice” value with C57BL/6 mice (dose not stated) is recorded as “no statistical significance”. Moreover, the fold induction at 10 µM in the assay with crypt stem cells Lgr5+ was 14.7.

Take `CN1CCCCC1CCN1c2ccccc2Sc2ccc([S+](C)[O-])cc21` (stereo not drawn) [Mesoridazine Besylate]: the “influence on the survival time of mice” value in the assay on C57BL/6 mice (dose not stated) is given as “no statistical significance”. Besides, the fold induction at 10 µM with crypt stem cells Lgr5+ is 4.2.

On to `C[n+]1ccccc1/C=N/O` [Pralidoxime chloride], for which, in the assay on crypt stem cells Lgr5+, the fold induction at 10 µM worked out at 4.8.

Consider `CCN(C)C(=O)Oc1cccc([C@H](C)N(C)C)c1` [Rivastigmine], for which the “survival of mice after 30 d” value with C57BL/6 mice (1 mg/kg i.p. before 10 Gy whole body irradiation) and in the assay with C57BL/6 mice (2 mg/kg i.p. before 10 Gy whole body irradiation) was “still survival mice after 30 d” in each case. For the same molecule, the survival rate entry in the assay with C57BL/6 mice (2 mg/kg i.p. before 10 Gy whole body irradiation, after 30 d, P<0.001 vs control group) was “greater than 40%”. Moreover, in the assay with C57BL/6 mice (intraperitoneally injected, 10 Gy whole body irradiation, 30 days post irradiation, dose not stated), the “survival rate of the mice” value is recorded as “greater than 40%”. The fold induction at 10 µM in the assay with crypt stem cells Lgr5+ is 14.2.

For `N#C[C@@H]1C[C@@H]2C[C@@H]2N1C(=O)[C@@H](N)C12CC3CC(CC(O)(C3)C1)C2` [Saxagliptin hydrate], the “influence on the survival time of mice” value with C57BL/6 mice (dose not stated) is given as “no statistical significance”. For the same molecule, the fold induction at 10 µM in the assay on crypt stem cells Lgr5+ amounted to 15.9.
